Source: patent US11304946B2, “2-hetarylpyrimidine-4-carboxamides as aryl hydrocarbon receptor antagonists” (Bayer Aktiengesellschaft, priority 2017, dated 2022)

What was measured:
Mouse AhR = target: T1, Mouse AhR (Mus musculus, UniProt P30561); assay: Transactivation assay in mouse cell line (in vitro assay 2: antagonism); type: cell-based; details: Hepa 1c1c7 cells, AHR inducible (DRE) firefly luciferase reporter, 200 μM kynurenic acid, 20 hours
T1 sequence (P30561 1-848): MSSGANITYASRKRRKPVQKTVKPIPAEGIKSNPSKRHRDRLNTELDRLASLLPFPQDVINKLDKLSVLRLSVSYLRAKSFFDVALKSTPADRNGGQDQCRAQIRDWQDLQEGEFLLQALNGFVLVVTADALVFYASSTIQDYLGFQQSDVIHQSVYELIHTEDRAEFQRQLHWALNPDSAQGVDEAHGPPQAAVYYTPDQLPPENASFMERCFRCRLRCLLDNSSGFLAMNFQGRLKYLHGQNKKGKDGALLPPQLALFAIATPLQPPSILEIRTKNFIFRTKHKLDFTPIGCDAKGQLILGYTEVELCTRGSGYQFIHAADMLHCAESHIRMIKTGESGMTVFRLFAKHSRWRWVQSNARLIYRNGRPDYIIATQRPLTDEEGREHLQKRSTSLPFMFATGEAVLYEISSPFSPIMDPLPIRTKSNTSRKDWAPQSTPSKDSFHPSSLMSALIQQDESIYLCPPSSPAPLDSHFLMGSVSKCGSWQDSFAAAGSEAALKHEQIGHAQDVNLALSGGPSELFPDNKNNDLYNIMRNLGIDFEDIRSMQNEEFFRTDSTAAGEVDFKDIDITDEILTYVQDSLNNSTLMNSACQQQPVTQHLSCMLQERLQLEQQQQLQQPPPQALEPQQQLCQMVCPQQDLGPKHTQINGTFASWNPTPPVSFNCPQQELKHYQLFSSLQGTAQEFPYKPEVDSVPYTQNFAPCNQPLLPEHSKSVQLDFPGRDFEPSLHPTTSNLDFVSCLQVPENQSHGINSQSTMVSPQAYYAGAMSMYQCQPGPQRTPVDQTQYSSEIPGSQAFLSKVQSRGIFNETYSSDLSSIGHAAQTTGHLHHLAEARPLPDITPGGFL
Method in brief: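 Hepa 1c1c7 cells express AhR endogenously and stably carry a DRE-driven firefly luciferase reporter. They were prestimulated with the agonist kynurenic acid before compound testing for antagonism. Luciferase read by SteadyGlo luminescence.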

Human AhR = target: T2, Human AhR (Homo sapiens, UniProt P35869); assay: Transactivation assay in human cell line (in vitro assay 1: antagonism); type: cell-based; details: U87 glioblastoma cells, AHR inducible (DRE) firefly luciferase reporter, 150 μM kynurenic acid, 20 hours
T2 construct: host or cells: U87 glioblastoma cells, stably transfected with DRE-driven firefly luciferase and constitutive renilla reporter constructs
T2 sequence (P35869 11-848): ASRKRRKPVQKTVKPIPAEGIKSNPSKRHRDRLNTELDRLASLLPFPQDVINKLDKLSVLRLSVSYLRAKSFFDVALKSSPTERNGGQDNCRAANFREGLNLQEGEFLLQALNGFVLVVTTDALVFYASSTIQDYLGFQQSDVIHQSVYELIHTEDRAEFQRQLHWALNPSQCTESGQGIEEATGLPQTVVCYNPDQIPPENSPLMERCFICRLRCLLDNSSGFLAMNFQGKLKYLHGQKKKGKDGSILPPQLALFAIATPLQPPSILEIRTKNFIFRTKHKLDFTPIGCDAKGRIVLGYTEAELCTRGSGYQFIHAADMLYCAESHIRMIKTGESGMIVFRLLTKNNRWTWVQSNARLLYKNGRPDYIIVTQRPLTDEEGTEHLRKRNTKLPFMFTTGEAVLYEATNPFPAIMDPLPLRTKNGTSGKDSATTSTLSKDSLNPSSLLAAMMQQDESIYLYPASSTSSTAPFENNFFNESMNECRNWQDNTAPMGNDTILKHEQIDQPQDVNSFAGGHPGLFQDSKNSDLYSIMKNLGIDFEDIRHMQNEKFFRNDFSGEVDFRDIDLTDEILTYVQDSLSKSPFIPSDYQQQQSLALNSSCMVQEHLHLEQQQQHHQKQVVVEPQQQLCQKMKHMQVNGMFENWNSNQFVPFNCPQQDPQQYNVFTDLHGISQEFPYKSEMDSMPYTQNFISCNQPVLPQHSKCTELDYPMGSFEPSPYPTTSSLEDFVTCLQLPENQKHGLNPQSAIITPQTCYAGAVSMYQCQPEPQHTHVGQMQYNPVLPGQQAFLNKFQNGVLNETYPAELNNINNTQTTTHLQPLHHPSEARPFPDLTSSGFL
Method in brief: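 U87 glioblastoma cells with endogenous AHR, stably carrying DRE-driven firefly luciferase and constitutive Renilla reporters, prestimulated with kynurenic acid before compound. Dual luciferase read-out; Renilla signal used to flag toxicity.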

Row | IC50 (Mouse AhR) | IC50 (Human AhR) | Structure (SMILES)
1 | 20.4 nM | 12.5 nM | CC(NC(=O)c1cc(-c2ccc(OC(F)(F)F)cc2)nc(-c2cnn(C)c2)n1)C(O)CO (stereo not shown) [Example 104, N-(3,4-dihydroxybutan-2-yl)-2-(1-methyl-1H-pyrazol-4-yl)-6-[4-(trifluoromethoxy)phenyl]pyrimidine-4-carboxamide]
2 | 20 nM | 7.32 nM | Cn1cc(-c2nc(C(=O)NC3CCCC(F)(F)C3O)cc(-c3ccc(OC(F)(F)F)cc3)n2)cn1 (stereo not shown) [Example 106, N-(3,3-difluoro-2-hydroxycyclohexyl)-2-(1-methyl-1H-pyrazol-4-yl)-6-[4-(trifluoromethoxy)phenyl]pyrimidine-4-carboxamide]
3 | 1.33 nM | 1.26 nM | C[C@@H](CO)NC(=O)c1cc(-c2ccc(C(F)(F)F)cc2)nc(-c2cccnc2)n1 [Example 117, N-[(2S)-1-hydroxypropan-2-yl]-2-(pyridin-3-yl)-6-[4-(trifluoromethyl)phenyl]pyrimidine-4-carboxamide]
4 | 3.4 nM | 2.34 nM | O=C(N[C@H]1COC[C@@H]1O)c1cc(-c2ccc(OC(F)(F)F)cc2)nc(-c2cccnc2)n1 [Example 118, N-[(3S,4R)-4-hydroxyoxolan-3-yl]-2-(pyridin-3-yl)-6-[4-(trifluoromethoxy)phenyl]pyrimidine-4-carboxamide]
5 | 6.81 nM | 2.88 nM | C[C@H](NC(=O)c1cc(-c2ccc(C(F)F)cc2)nc(-c2cccnc2)n1)C(C)(C)O [Example 119, 6-[4-(difluoromethyl)phenyl]-N-[(2S)-3-hydroxy-3-methylbutan-2-yl]-2-(pyridin-3-yl)pyrimidine-4-carboxamide]
